Data reported in patent US20100278733A1, “COMPOSITION FOR DIAGNOSIS OF AMYLOID-RELATED DISEASE” (priority 2007, published 2010).

Experiments:
[1] = target: T1, Aβ(1-42) aggregate (Homo sapiens, UniProt P05067); assay: In-vitro binding inhibition experiment using Aβ(1-42) aggregate (Reference Example 2); conditions: ligand [^125I]4-dimethylamino-4′-iodochalcone; compound numbers of Reference Example 2; read-out: Inhibition constant (Ki, nM) (mean ± SE)
T1 construct: Amyloid β protein (Human, 1-42) [TFA form] was purchased from Peptide Institute, Inc; purchased Peptide Institute, Inc
Method: Amyloid β protein (Human, 1-42) [TFA form] was purchased from Peptide Institute, Inc., and special grade reagents were used as other reagents. ^1H-NMR was measured using Varian Gemini 300 and tetramethylsilane as an internal standard substance.
The Aβ(1-42) aggregate was dissolved in a buffer containing 10 mM sodium phosphate and 1 mM EDTA (pH 7.4) at a concentration of 0.5 mg/mL, and the mixture was incubated at 37° C. for 36 to 42 h. The binding inhibition experiment was performed using 12×75-mm borosilicate glass tubes. 850 μL of 10% ethanol solution, 50 μL of [^125I]4-dimethylamino-4′-iodochalcone (in 10% aqueous ethanol), 50 μL (29 nM) of an Aβ(1-42) aggregate solution, and 50 μL of a solution of fluorine-containing chalcone derivatives in 10% aqueous ethanol prepared at various concentrations were mixed, and the mixture was allowed to stand at room temperature for 3 h. Further, nonspecific binding was calculated using 4-dimethylamino-4′iodochalcone (400 nM), a nonradioactive compound. Aβ aggregate-bound chalcone derivatives and nonbound chalcone derivatives were separated with a Brandel M-24R cell harvester using Whatman GF/B filters. Radioactivities of substances remaining on the filter were measured with a γ counter. The 50% inhibitory concentrations were calculated using Graph Pad Prism (graph pad software), and inhibition constants (Ki values) were calculated by Cheng-Prusoff equation, Ki=IC50/(1+[L]/Kd). In this equation, the concentration of [^125I]4-dimethylamino-4′-iodochalcone used in the experiment was used for [L], and the dissociation constant of [^125I]4-dimethylamino-4′-iodochalcone against the Aβ(1-42) aggregate was used for Kd.

[2] = target: T1, Aβ(1-42) aggregate; assay: Examination of binding site by binding inhibition experiment using Aβ(1-42) aggregate (Example 2); conditions: in words, FIG. 10
Method: Aβ(1-42) was dissolved in 10 mM phosphate buffer containing 1 mM EDTA (pH 7.4) at a concentration of 0.25 mg/mL, and the mixture was incubated at 37° C. for 42 h to prepare an Aβ(1-42) aggregate.
[…] of 10% EtOH solution, […] of [^125I]CL-NMe2 solution, […] of a solution of congo red, thioflavine T, or compound 14 at various concentrations (0 to 20 mM) were mixed, […] of an Aβ(1-42) aggregate solution was finally added, and the mixture was allowed to stand at room temperature for 3 h. Aβ(1-42) aggregate-bound compounds and nonbound compounds were separated with a Brandel M-24R cell harvester using a Whatman GF/B filter. Radioactivities remaining on the filter after filtration were measured with a γ-counter, and inhibition curves were created using Graph Pad Prism 4.0 to calculate inhibition constants.

[3] = In-vivo radioactivity distribution experiment in normal mice (Reference Example 2); conditions: Reference Example 2 numbering; for Radioactivity concentration in the brain of mice: intravenous
Method: Labeled compounds, [^11C]Compounds 23 and 7, were diluted with physiological saline containing 10% ethanol. 100 μL of each of the labeled compounds was intravenously infused to five 5-week-old male ddY mice per group, the animals were decapitated at 2, 10, 30, or 60 min, blood was collected, and then weights and radioactivities thereof were measured.

T1 sequence (P05067 672-713 limits assumed): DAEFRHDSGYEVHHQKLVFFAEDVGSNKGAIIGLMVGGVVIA

CN(C)c1ccc(/C=C/C(=O)c2ccc(OCCF)cc2)cc1 [Compound 3 in Reference Example 2, (E)-1-(4-(2-fluoroethoxy)phenyl)-3-(4-(dimethylamino)phenyl)prop-2-en-1-one]
Ki [1]: 29 ± 2 nM

Nc1ccc(/C=C/C(=O)c2ccc(OCCF)cc2)cc1 [Compound 11 in Reference Example 2, (E)-1-(4-(2-fluoroethoxy)phenyl)-3-(4-aminophenyl)prop-2-en-1-one]
Ki [1]: 553 ± 22 nM

CN(C)c1ccc(/C=C/C(=O)c2ccc(OCCOCCF)cc2)cc1 [Compound 5 in Reference Example 2, (E)-1-(4-(2-(2-fluoroethoxy)ethoxy)phenyl)-3-(4-(dimethylamino)phenyl)prop-2-en-1-one]
Ki [1]: 19 ± 1 nM

Nc1c(/N=N/c2ccc(-c3ccc(/N=N/c4cc(S(=O)(=O)O)c5ccccc5c4N)cc3)cc2)cc(S(=O)(=O)O)c2ccccc12 [congo red]
inhibition of binding of [^125I]CL-NMe2 to the Aβ(1-42) aggregate [2]: did not inhibit binding of [^125I]CL-NMe2 to the Aβ(1-42) aggregate to a large extent

Cc1ccc2c(c1)sc(-c1ccc(N(C)C)cc1)[n+]2C.[Cl-] [thioflavine T]
inhibition of binding of [^125I]CL-NMe2 to the Aβ(1-42) aggregate [2]: did not inhibit binding of [^125I]CL-NMe2 to the Aβ(1-42) aggregate to a large extent

Nc1ccc(/C=C/C(=O)c2ccc(OCCOCCF)cc2)cc1 [Compound 16 in Reference Example 2, (E)-1-(4-(2-(2-fluoroethoxy)ethoxy)phenyl)-3-(4-aminophenyl)prop-2-en-1-one]
Ki [1]: 1000 ± 29 nM

CNc1ccc(/C=C/C(=O)c2ccc(OCCOCCF)cc2)cc1 [Compound 17 in Reference Example 2, (E)-1-(4-(2-(2-fluoroethoxy)ethoxy)phenyl)-3-(4-(methylamino)phenyl)prop-2-en-1-one]
Ki [1]: 187 ± 3 nM

CN(C)c1ccc(/C=C/C(=O)c2ccc(F)cc2)cc1 [Compound 23 in Reference Example 2, (E)-3-(4-(dimethylamino)phenyl)-1-(4-fluorophenyl) prop-en-1-one]
ratio of brain radioactivity at 60 min to that at 2 min after administration [3]: 28.3%
ratio of the radioactivity remaining in the brain at 30 min after administration to that at 2 min after administration [3]: 28.3%
Radioactivity concentration in the brain of mice ([3]; 2 min after administration, listed as [^11C] 23): 3.68 ± 0.35 % ID/g
Radioactivity concentration in the brain of mice ([3]; 2 min after administration, listed as [^11C]Compound 23): 3.68 % ID/g
Radioactivity concentration in the brain of mice ([3]; 10 min after administration): 1.53 ± 0.14 % ID/g
Radioactivity concentration in the brain of mice ([3]; 30 min after administration): 1.04 ± 0.15 % ID/g
Radioactivity concentration in the brain of mice ([3]; 60 min after administration, listed as [^11C] 23): 1.04 ± 0.20 % ID/g
Radioactivity concentration in the brain of mice ([3]; 60 min after administration, listed as [^11C]Compound 23): 1.04 % ID/g
